In patent publication US10472677B2, “Translational dysfunction based therapeutics” (Translational Therapeutics, Inc., priority 2005, dated 2019):
Entries after “also recorded” stand apart in the source; their conditions may differ.

Experiments:
[1] = test system: cyclin D1 mRNA transport in NIH 3T3 cells; assay: nucleocytoplasmic mRNA transport, fractionation with Northern / quantitative PCR; type: cell-based, mouse
Description: Cells were washed twice with PBS and lysed by slow pipetting in 0.14 M NaCl/10 mM Tris.HCl (pH 8.4)/1.5 mM MgCl2/0.5% (vol/vol) Nonidet P-40/1 mM DTT/100 units/ml RNasin (Promega) at 4° C. Lysed suspensions were centrifuged at 1,000×g for 3 min at 4° C., and the supernatant was saved as the cytoplasmic fraction. Nuclear pellets were resuspended in lysis buffer, and 1/10th volume of 3.3% (wt/vol) sodium deoxycholate and 6.6% (vol/vol) Tween 40 was added under slow vortexing, and incubated at 4° C. for 5 min. Nuclei were sedimented by centrifugation at 1,000×g for 3 min at 4° C., and the supernatant (postnuclear fraction) was added to the cytoplasmic fraction. This yielded intact nuclei, as observed by using light microscopy, with no significant cytoplasmic contamination, as evaluated using tRNA^Lys and β-actin contents. Fractionated cytoplasm was free of nuclear contamination, as indicated by absence of U6 snRNA and Sc35.
RNA from whole cells or nuclear and cytoplasmic fractions was extracted by using Trizol according to manufacturer's instructions (GIBCO). Isolated RNAs were treated with RNase-free DNase I (Promega) and 5-1 μg aliquots were resolved on 1% formaldehydeagarose gel and transferred to a positively charged nylon membrane (Roche, Nutley, N.J.). Membranes were prehybridized in ULTRAhyb buffer (Ambion) and probed with 20 μM cyclin D1 cDNA probe, 5 μM β-actin cDNA probe, 30 μM biotinylated tRNA^Lys antisense oligo probe, and 30 μM biotinylated U6 small nuclear RNA antisense oligo probe. cDNA probes were biotinylated by using BrightStar psoralen-biotin and observed by using CDP Star chemiluminescence according to the manufacturer's instructions (Ambion). Band intensity and film response were quantified by using NIH IMAGE.
Cell pellets (500 mg) were homogenized in 1 ml of ice cold lysis buffer (20 mM Hepes/10 mM magnesium acetate/100 mM potassium acetate, pH 7.5) supplemented with protease inhibitors (EDTA-free Complete, Roche) and 400 units/ml of SUPERasine (Ambion), and incubated for 30 min on ice with occasional vortexing. Lysates were sedimented at 3,000×g for 10 min at 4° C. to pellet nuclei and cell debris. Supernatants were sedimented at 12,000×g for 20 min at 4° C. to pellet mitochondria. […] RNA content of fractions was ascertained by using the ratio of absorbance at 260:280 nm. […] RNA from each fraction was quantified by spectrophotometry and 40 ng was converted into cDNA by using the Sensiscript reverse transcription kit (Qiagen, Valencia, Calif.). Quantitative real-time PCR was carried out in triplicate by using the QuantiTect SYBR green real-time PCR Kit (Qiagen) in an Opticon thermal cycler (MJ Research, Waltham, Mass.). […] Obtained real-time PCR profiles were analyzed by using Opticon software (MJ Research).

[2] = test system: cyclin D1 protein in NIH 3T3 cells; assay: Western blot of total extracts of treated cells; type: cell-based, mouse
Description: Protein concentrations were determined by using bicinchoninic acid-copper reduction (Pierce) and 20-μg aliquots were resolved using SDS/PAGE, transferred to Immobilon-P membrane (Millipore), blocked, and probed by using primary antibodies against eIF4E (1:5000, Transduction Laboratories), cyclin D1 (1:500, Becton Dickinson), β-actin (1:5000, Sigma), c-myc (1:1000, Becton Dickinson), and Sc35 (1:5000, Santa Cruz Biotechnology). Bound antibodies were chemiluminescently detected by using horseradish peroxidase-conjugated secondary antibodies (Amersham Pharmacia) and SuperSignal West Pico reagent according to manufacturer's instructions (Pierce).

[3] = test system: eIF4E-transfected NIH 3T3 cells; assay: transformation assay, anchorage-dependent foci formation; type: cell-based; conditions: Mus musculus, NIH3T3, read-out: apparent EC50 suppression of eIF4E-mediated transformation
[4] = test system: AML-M5 progenitor cells; assay: clonogenic assay, primary CD34+ progenitors; type: cell-based; conditions: Homo sapiens, 336 h; 14 days; read-out: apparent IC50 colony formation
Text: (§1) Acute myelogenous leukemia (AML) M1, M5, and normal bone marrow specimens were isolated from patients and processed as described. Primary AML cells were obtained from peripheral blood of patients at the Markey Cancer Center, University of Kentucky Medical Center (Lexington, Ky.). Normal bone marrow was obtained as waste material after pathological analysis, surgical marrow harvest, or from the National Disease Research Interchange (Philadelphia). All tissues were obtained with the approval of the Institutional Review Board and appropriate informed consent. Frozen CD34^+ progenitor cells were thawed in Iscove's modified Dulbecco's (IMD) medium supplemented with 10% (vol/vol) FBS. […] Colonies with >20 cells were counted manually and experiments were repeated four times.

[5] = test system: AML-M1 progenitor cells; assay: clonogenic assay, primary CD34+ progenitors; type: cell-based, human; conditions: at ca. 1 uM / similar concentrations
Text: as §1

[6] = test system: normal bone marrow myeloid progenitors; assay: clonogenic assay, primary CD34+ progenitors; type: cell-based, human; conditions: micromolar concentrations
Text: as §1

[7] = test system: FaDu tumors in nude mice; type: in vivo
Description: Female 5- to 7-week-old athymic NCr-nu/nu mice were obtained from Taconic Farms. Human FaDu cells, derived from a hypopharyngeal squamous cell carcinoma, were obtained from the American Type Culture Collection. Mice were inoculated s.c. into the right flank with 0.5×10^6 cells in 50 μl PBS, and were randomly segregated into two groups of 10 mice each. After 1 week of engraftment, treatment was administered orally each day at a dose of 40 μg/kg Ribavirin. Tumor size was ascertained by measuring tumor diameter, and statistical significance was ascertained by using a paired t test.

[8] = test system: Akt; assay: Akt phosphorylation; type: cell-based; conditions: FIGS. 35 and 36
[9] = test system: 4E mediated apoptotic rescue; assay: 4E mediated apoptotic rescue; type: cell-based; conditions: FIG. 37
[10] = test system: cellular guanosine pools; conditions: read-out: EC50 depletion of cellular guanosine pools; cited from earlier work

With `NC(=O)c1ncn([C@@H]2O[C@H](CO)[C@@H](O)[C@H]2O)n1` [Ribavirin, 1-β-D-ribofuranosyl-1,2,4-triazole-3-carboxamide] the “nuclear retention of cyclin D1 mRNA” value ([1]; 0.1 μM, quantitative real-time PCR) was 2 fold, the EC50 ([1]; Mus musculus, NIH3T3, NIH 3T3, read-out: apparent EC50 inhibition of nucleocytoplasmic cyclin D1 mRNA transport) was about 1000 nM and the “concentration of nearly complete nuclear retention of cyclin D1 mRNA” value ([1]; NIH 3T3) was 100 µM. The “nucleocytoplasmic transport of B-actin and VEGF mRNAs” value ([1]; at 100 uM) was “not affected”, the “levels of B-actin and eIF4E proteins” value [2] was “not reduced” and the EC50 ([2]; Mus musculus, NIH3T3, read-out: apparent EC50 reduction of cyclin D1 protein levels) was 100 to 1000 nM. The EC50 [3] was 100 to 1000 nM, the IC50 [4] was about 1000 nM and the “colony formation of AML-M1 progenitors” value [5] was “no effect; also recorded: failed to repress colony formation”. For the same molecule, the “colony formation of normal bone marrow progenitors” value [6] was “no effect; also recorded: lack of an effect”, the “mean tumor volume, fold less than untreated control” value ([7]; 40 ug/kg orally daily, after 20 days, P=0.023) was 6 fold and the mean body concentration ([7]; 40 ug/kg orally each day) was “ca. 1 uM”. For the same molecule, the “effect on Akt phosphorylation” value [8] was “inhibits”, the “effect on 4E mediated apoptotic rescue” value [9] was “blocks” and the EC50 [10] was about 100 µM.
